Data from patent US9783551B2, “Pyranochromenyl phenol derivative, and pharmaceutical composition for treating metabolic syndrome or inflammatory disease” (GLACEUM, INC., priority 2013, dated 2017).

Assays:
[1] = Chemical stability in 1% HCl in MeOH (HPLC); type: physicochemical; settings: for stability in words: until 3 days (72 hours)
Protocol: (§1) The relative chemical stability of glabridin of Preparation Example 1, Example 3 (Compound 4), Example 4 (Compound 5) and Example 14 (Compound 15) were compared with each other. That is, 50 mg of each of glabridin, Compound 4, Compound 5, and Compound 15 was exactly weighed, dissolved in 50 ml of 1% HCl in MeOH and 10 ml of 1% NaOH in MeOH, and the concentrations of the compounds were examined by HPLC at each time level of 0, 8 hrs, 12 hrs, 24 hrs, 48 hrs, and 72 hrs. At this time, the concentrations of the compounds remaining in 1% HCl in MeOH and 1% NaOH in MeOH were determined using an internal standard (Compound 14 of Example 13). That is, 10 mg of Compound 14 was exactly weighed and dissolved in 100 ml of acetonitrile, 9 ml of this solution was mixed with 1 ml of the sample aliquoted at each time level, the mixture was analyzed by HPLC, and the concentrations of the compounds in the internal standard and in the above samples were determined by comparing the initial values.
(§2) The concentrations of the compounds remaining in 1% HCl in MeOH and 1% NaOH in MeOH at each time level are in the following Table 8 and FIG. 7 and the following Table 9 and FIG. 8, respectively.
(§3) The numerical values exceeding 100% in the following Tables 8 and 9 show those measured at a concentration is slightly higher than the initial measurement value, and this is due to the fact that an average value of the measured values was simply shown without considering a statistical error generated during the measurement. Since the measured value of about 95% or more is deemed to have practically no change in concentration, it may be seen that the compounds of the present invention are excellent in chemical stability.

DIO mice [2] = test: Anti-obesity effect for DIO mice (body weight); type: in vivo, C57BL/6 mice; settings: Mus musculus, 672 h; 4 weeks, 150 mg/kg, oral gavage once daily
Method in brief: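 Female C57BL/6 mice made obese by ≥10 weeks of high-fat diet; compounds suspended in 0.5% methyl cellulose and given by oral gavage once daily for 28 days. Body weight measured twice weekly; effect (%) = (control weight − treated weight)/control weight × 100.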

BV2 microglia cells = test: BV2 cell NO assay (LPS-induced NO production, Griess reagent); type: cell-based; settings: Mus musculus, BV-2, LPS 1 μg/ml, 24 hours
Method in brief: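 BV2 cells; NO suppression tested only at concentrations showing no cytotoxicity in an MTT assay (0.5 mg/ml MTT, absorbance 540 nm). NO read by absorbance at 540 nm; suppression rate taken as the difference in NO produced between control and treated groups; mean of three repeats.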

[3] = Chemical stability in 1% NaOH in MeOH (HPLC); type: physicochemical; settings: for stability in words: until 3 days (72 hours)
Protocol: as §1, §2, §3

RAW264.7 macrophages = test: RAW264.7 macrophage NO assay (LPS-induced NO production, Griess reagent); type: cell-based; settings: for IC50: Mus musculus, RAW264.7, NO production, LPS 1 μg/ml, 24 hours; for effect of suppressing the production of NO: RAW264.7 macrophages, in words
Method in brief: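 MTT (0.5 mg/ml, 4 h) viability read at 540 nm set non-cytotoxic compound concentrations for the NO test. NO suppression, read by absorbance at 540 nm, was the difference in NO between control and treated groups; values are means of three repeats.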

DIO mice [4] = test: Organ weights and blood biochemistry of DIO mice after 28 days of administration; type: in vivo, C57BL/6 mice; settings: 150 mg/kg
Protocol: Five-week-old female C57BL/6 mice (Narabio Co., Ltd.) were purchased and fed with only high-fat diet for at least 10 weeks to produce diet induced obesity ([…]) mice. Samples were exactly taken from Preparation Example 1 (glabridin) and the compounds of Examples of the present invention (Compounds 1 to 5, 7, 9, 11, 14 to 16, 21, and 23) according to the administration dose and put into Falcon tubes, 3 ml of a 0.5% methyl cellulose aqueous solution was added thereto and a vortex mixer was used to primarily mix the ingredients in a soft manner, and then a homogenizer (30,000 rpm, Ultra-Turrax® T10 Basic, IKA) was used to treat the sample for 3 minutes while 1.5 ml of a 0.5% methyl cellulose aqueous solution was added thereto. The sample thus prepared was administered through oral gavage using a disposable plastic syringe once daily for 28 days (4 weeks). The body weight was measured twice a week while the DIO mice were bred in this manner. Based on the data thus calculated, the anti-obesity effect (%) was calculated according to the equation defined as follows. Anti-Obesity Effect={(Body weight of control group)−(Body weight of experimental group)}/(Body weight of control group)×100
After the experiment was performed for 28 days (4 weeks) as described above, blood was simultaneously taken while the experimental animal was finally sacrificed, and each of the organs (liver, heart, kidney, pancreas, fat tissues and the like) was removed to measure the weight and observe peculiar matters.
In Table 3, { }, ( ) and the like were used in order to differentiate experiments which had been performed at different periods. Experiments without the parenthesis were those simultaneously performed under the same conditions.

Structure (SMILES)	concentration of compound remaining [1]; 0 [%]	concentration of compound remaining ([1]; 8 h) [%]	concentration of compound remaining ([1]; 24 h) [%]	concentration of compound remaining ([1]; 48 h) [%]	concentration of compound remaining ([1]; 72 h) [%]	stability in words [1]	inhibition in vivo at 150 mg/kg (DIO mice [2]) [%]	IC50 (BV2 microglia cells) [µM]	concentration of compound remaining [3]; 0 [%]	concentration of compound remaining ([3]; 8 h) [%]	concentration of compound remaining ([3]; 24 h) [%]	concentration of compound remaining ([3]; 48 h) [%]	concentration of compound remaining ([3]; 72 h) [%]	stability in words [3]	IC50 (RAW264.7 macrophages) [µM]	effect of suppressing the production of NO (RAW264.7 macrophages)	further results
CCCc1ccc(C2COc3c(ccc4c3CCC(C)(C)O4)C2)c(O)c1 (stereo not shown) [Compound 5, 3-(2-hydroxy-4-propylphenyl)-8,8-dimethyl-2,3,4,8,9,10-hexahydropyrano [2,3-f] chromene]	100	102	102	101	101	very stable	19	3.8	100	101	102	100	102	very stable	5.2	excellent	ALT (U/L) (DIO mice [4]; ( ) experiment): (50) U/L; AST (U/L) (DIO mice [4]; ( ) experiment): (131) U/L; BMI (DIO mice [4]; ( ) experiment): (3.0); FFA (μEq/L) (DIO mice [4]; ( ) experiment): (2310) μEq/L; Fat (g), weight of fat removed around the epididymis and the kidney (DIO mice [4]; ( ) experiment): (1.04) g; LDL (mg/dL) (DIO mice [4]; ( ) experiment): (12) mg/dL; Liver (g), weight of liver (DIO mice [4]; ( ) experiment): (1.15) g
CCOc1ccc(C2COc3c(ccc4c3CCC(C)(C)O4)C2)c(O)c1 (stereo not shown) [Compound 15, 3-(2-hydroxy-4-ethoxyphenyl)-8,8-dimethyl-2,3,4,8,9,10-hexahydropyrano [2,3-f] chromene]	100	98	100	98	100	very stable	14	2.7	100	100	100	98	100	very stable	6.8	excellent	ALT (U/L) (DIO mice [4]; experiment without parenthesis): 52 U/L; AST (U/L) (DIO mice [4]; experiment without parenthesis): 143 U/L; BMI (DIO mice [4]; experiment without parenthesis): 3.6; FFA (μEq/L) (DIO mice [4]; experiment without parenthesis): 1760 μEq/L; Fat (g), weight of fat removed around the epididymis and the kidney (DIO mice [4]; experiment without parenthesis): 2.02 g; LDL (DIO mice [4]; experiment without parenthesis): 10 mg/dL; Liver (g), weight of liver (DIO mice [4]; experiment without parenthesis): 1.28 g
